In one data set the test system is hSTING CTD. Put plainly: Differential scanning fluorimetry (thermal shift). Format: binding, human. To be noted: 200 μM.
The target of data set [1] is T1, hSTING CTD (STING R232 variant) (Homo sapiens, UniProt Q86WV6, H232R).
T1 construct: 6X-His tagged hSTING^WT, R232 variant, CTD protein was purchased; purchased Invivogen (USA) or Cayman Chemicals (USA)
The data set is described as follows: Microscale thermophoresis. Format: binding. The note with it: Log inhibitor versus response fit. The protocol: Small molecule affinities at subpicomolar concentrations are typically difficult to determine by MST due to the inability of the detector to measure differential movement of proteins when largely disproportionate ratios of protein to ligand are involved. […] Generally, an IC50 correlates well with a K D when a small molecule competes for binding with a natural substrate for a target protein.
The resulting mixture was centrifuged at 12,000 x RPM 10 min prior to use. […] The samples were run again at 30- and 45 min. Detection of the protein was performed using the blue detection channel with excitation power set to 100% and MST set to high allowing 3 s prior to MST on to check for initial fluorescence differences, 35 s for thermophoresis, and 3 s for regeneration after MST off. Analysis was performed using M.O. Affinity Analysis Software with difference between initial fluorescence measured in the first 5 s as compared with thermophoresis at 30 s at 16 different analyte concentrations ranging from 100 μM to 100 zM and exported into Graphpad Prism v.8 using a Log inhibitor versus response for parameter fit.

The test system of data set [2] is hSTING oligomerization in HEK293S cells. Put plainly: Clear native PAGE of hSTING oligomerization in HEK293S cells. Type of data set: cell-based, human. To be noted: CXL 1 h, then 100 nM diABZI3 2 h. As for the experimental part:
To determine whether the results we observed in the DLS experiments could be recapitulated in cellulo, where full-length hSTING is present, we used HEK293T cells transfected with WT hSTING (referred to herein as HEK293S cells) to perform hSTING clear native PAGE experiments. […] Thus, HEK293S cells were harvested following treatment with 100 nM diABZI3 for 2 h, following a 1 h treatment of varying concentrations of CXL.
Invitrogen NativePAGE Sample Prep Kit Catalog number: BN2008, Invitrogen NativePAGE Running Buffer Kit Catalog number: BN2007 and Invitrogen NativePAGE 4 to 16%, Bis-Tris, 1.0 mm, Mini Protein Gels, 10 wells, (Cat. # BN1002BOX). Cells were harvested and CXL was added at varying concentrations for 1 h and followed by 2 h of diABZI3 at 100 nM. To the mammalian cells harvested in 1 mL cell culture, add 0.2 mL lysis buffer containing 10 mM HEPES, pH 7.5,150 mM NaCl, 5% glycerol, protease inhibitor cocktail, and 0.025% digitonin. Cells were lysed by sonicating for two rounds of 15 s each while cooling the sample on ice. Centrifuge the lysate at 20,000g for 10 min at 4 °C. Aliquot the supernatant into microcentrifuge tubes. To prepare the sample for loading a total volume of 20 μL NativePAGE including Sample Buffer (4×) 5 μLSTING supernatant, 14.5 μL and Ponceau S-dye: 0.5 μL. 1X NativePAGE Anode Buffer: Add 30 mL of 20X NativePAGE Running Buffer to 570 mL of deionized water. […]

Data set [3] concerns IFN-β expression in HEK293 cells. Put plainly: HEK293 real-time qPCR for IFN-β.
Procedure: IFN-β expression levels were measured using real-time qPCR.
For data set [4], the system named is hSTING phosphorylation (p-hSTING) in HEK293 cells. The data set is described as follows: HEK293 pSTING Western blot with 2′,3′-cGAMP. Format: cell-based, human. As for the experimental part:
Since phosphorylation of Ser366 of hSTING is a necessary step to initiate recruitment, subsequent docking, and phosphorylation of IRF3, we investigated whether CXL would affect hSTING phosphorylation levels in cellulo. Thus, HEK293 cells were treated with varying concentrations of CXL (1fM-1nM) for one hour prior to 2 μM 2′,3′-cGAMP treatment for 90 min (Figure A) or 2 h (Figure C). An optimized dose of 2 μM 2′,3′-cGAMP was based on a dose–response study done for this experiment. A control group was treated with vehicle for 1 h followed by 2 μM 2′,3′-cGAMP for 1 or 2 h (Figure C) Total protein lysates were collected and analyzed by Western blotting using antibodies against p-hSTING, hSTING, and β-actin.
HEK293 cells were seeded at 700,000 cells per 60 mm plate confluency and treated 36 h later. […] Vehicle control group was treated with Escort IV reagent and DMSO for 1 h prior to 2 μM 2′,3′-cGAMP (InvivoGen) for 1 h and 30 min using Escort IV transfection reagent. DMSO concentration was kept constant across all treatment groups. Total cell lysates were collected and analyzed by Western blotting using antibodies against p-STING, STING, and β-actin. […] Data points were analyzed with a one-way ANOVA test using PRISM9 statistical analysis software (GraphPad). A level of p < 0.05 was considered statistically significant.

The next data set addresses T2, His-hSTING CTD (Homo sapiens, UniProt Q86WV6, H232R).
T2 construct: purchased Invivogen (USA) or Cayman Chemicals (USA)
Put plainly: Surface plasmon resonance. Format: binding. To be noted: without 2′,3′-cGAMP competition; read-out: KD (SPR). As for the experimental part:
SPR was employed for binding measurements using the His-tagged hSTING^WT CDN domain. A GE Healthcare Biacore T200 was equipped with a Ni-NTA chip. […] The sensorgrams were analyzed using Biacore T200 Software 3.0 and steady state was measured at 4 s before injection stop, exported into Graphpad, and fit versus concentration using a one site specific binding model to calculate the apparent equilibrium dissociation constant (K D). Where appropriate, kinetics were measured using a 1:1 Langmuir binding model with R max set to local to obtain the association rate (K on), dissociation (K off)

Data set [5] relates to hSTING WT pathway (THP1 Dual KI-hSTING-R232 cells, IRF3 luciferase reporter). The data set is described as follows: THP-1 IRF3 luciferase reporter assay, clonixeril as agonist.
Procedure: 2 Luciferase assay utilizing monocytic leukemia (THP-1) cells. Cells (Invivogen THP1 Dual KI-hSTING-R232; wild type) were analyzed for activation of the hSTING WT pathway via an IRF3 luciferase reporter. Luminescence is reported in relative luminescence units (RLU). Error bars are SEM A. Dose–response of THP-1 cells treated with various concentrations of clonixeril (CXL); N = 6.
A 10 mM stock solution of CXL in 100% DMSO was diluted with ultrapure Milli Q water to make 3, 5, 10, 15, 20, 30, 40, 50 μM samples. The vehicle control contained blank cell medium treated with 0.1% DMSO. 20 μL sample/well of CXL or dilute DMSO (vehicle control) was added to a white, 300 μL, sterile 96 well plate. […] All samples contained a final DMSO concentration of 0.1%. […] The expression of Lucia luciferase was quantified by measuring the luminescence and evaluated in triplicate. Data are average luminescence changes shown as relative luminescence after subtraction of the background luminescence of vehicle-treated cells. A Glowmax luminometer with an injector was used for the measurement of luminescence in the luciferase assay. After the 10h incubation period, 20 μL/well of cell culture supernatant was transferred to a fresh well plate. A single injector added 50 μL of detection reagent per well, and immediately measured luminescence using a 4s incubation time integrated over 1 s.
The next data set relates to inflammation in rats. Also on record: method as in not given. The note with it: 30–300 mg/kg, ref not given, cited from earlier work.
A further data set concerns the target hSTING (Homo sapiens, UniProt Q86WV6, H232R). Put plainly: Summary of interaction of CXL with hSTING in vitro and in cellulo. To be noted: read-out: EC50, first mode of interaction with hSTING.

Like-named read-outs stand apart in the source and are kept apart here.

T1 sequence (Q86WV6 153-340 H232R): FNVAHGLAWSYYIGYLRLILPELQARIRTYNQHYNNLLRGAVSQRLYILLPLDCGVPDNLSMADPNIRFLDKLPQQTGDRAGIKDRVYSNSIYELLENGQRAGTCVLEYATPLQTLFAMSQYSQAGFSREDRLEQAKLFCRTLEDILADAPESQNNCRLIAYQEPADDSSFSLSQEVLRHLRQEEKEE
T2 sequence (Q86WV6 153-340 H232R): as above

On to `Cc1c(Cl)cccc1Nc1ncccc1C(=O)OCC(O)CO` (centres unmarked) [CXL, clonixeril], for which the Thermal shift entry in the data set on hSTING CTD was “negative thermal shift”. The “Hillslope (MST fit)” value in data set [1] is given as −1.669. Further, in data set [2], the “Effect on hSTING oligomerization” value is listed as “reduces hSTING oligomerization at concentrations down to attomolar levels”. The “Inhibition of IFN-b production” value in data set [3] (1 fM, reviewer's reading of Figure 3D) is listed as “about 75%”. For the same molecule, the “Diminution of 2′,3′-cGAMP-induced expression of IFN-β” value in data set [3] (all CXL treatment groups 1 fM-1 nM, 1 h before 4 μM 2′,3′-cGAMP) is listed as “more than 50%”. Moreover, the “Effect on hSTING phosphorylation, CXL prior to 2′,3′-cGAMP” value in [4] (CXL 1 fM-1 nM 1 h, then 2 μM 2′,3′-cGAMP) is reported as “downregulated hSTING phosphorylation close to near basal cellular levels”. Also, in [4] (same concentration range), the “Effect on hSTING phosphorylation, 2′,3′-cGAMP prior to CXL” value is recorded as “inhibitory activity was not observed”. Also, at His-hSTING CTD, the dissociation constant (Kd) turned out to be 0.43 ± 0.14 µM. Also, the EC50 in data set [5] (Homo sapiens, THP1-Dual KI-hSTING-R232, read-out: EC50 (agonist activity), CXL alone, THP-1 cells, Figure 2A) was about 19 µM; in [5] (read-out: EC50 (agonist activity), CXL alone, THP-1 cells, Figure 2A) it was 20 µM; at hSTING, over 0.001 µM. For the same molecule, the “Agonist activity in luciferase reporter assay” value in data set [5] (compound alone) is recorded as “weak agonist activity”. Besides, the Ulcerogenic effects entry in the data set with inflammation in rats is “without producing significant ulcerogenic effects”. Further, the Anti-inflammatory effect entry with inflammation in rats (oral) is listed as “anti-inflammatory effects”.
